Test [1] addresses T1, EB1n (EB1 N-terminus, residues 1-151) (Homo sapiens, UniProt Q15691).
T1 construct: gene MAPRE1; N-terminal fragment 1-151 containing CH domain (1-130); pET3d, E. coli BL21(DE3), untagged, cation exchange; mainly monomer
T1 sequence (Q15691 1-151): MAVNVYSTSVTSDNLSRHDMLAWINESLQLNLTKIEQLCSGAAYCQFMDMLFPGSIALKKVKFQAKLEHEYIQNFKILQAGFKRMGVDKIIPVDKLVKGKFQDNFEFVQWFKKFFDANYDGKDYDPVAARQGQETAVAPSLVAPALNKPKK
The test can be described thus: isothermal titration calorimetry. The note with it: 80 mM PIPES, 1 mM EGTA, 1 mM MgCl2, pH 6.9, 25 °C; N fitted freely; range over three experiments, printed jointly for EB1n and full length; noisy data; NMR in other buffers gives mM Kd. Type of test: binding. (In general: Isothermal titration calorimetry measures the heat released or taken up as one component is titrated into another.)

Test [2] has as its target T2, full length EB1 (His-tagged) (Homo sapiens, UniProt Q15691).
T2 construct: gene MAPRE1; full length 268 residues, His-tagged, recombinant, purified as in authors' earlier work; dimer
T2 sequence (Q15691 1-268): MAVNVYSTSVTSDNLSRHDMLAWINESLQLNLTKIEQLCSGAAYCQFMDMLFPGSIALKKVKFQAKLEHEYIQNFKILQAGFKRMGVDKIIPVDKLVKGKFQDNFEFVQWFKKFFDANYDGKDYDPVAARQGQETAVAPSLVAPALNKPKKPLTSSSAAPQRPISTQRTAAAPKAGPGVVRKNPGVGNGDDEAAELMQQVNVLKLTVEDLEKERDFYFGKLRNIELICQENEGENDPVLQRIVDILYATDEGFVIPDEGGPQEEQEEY
The test can be described thus: isothermal titration calorimetry. The note with it: 80 mM PIPES, 1 mM EGTA, 1 mM MgCl2, pH 6.9, 25 °C; N fixed at 2; range over three experiments, printed jointly for EB1n and full length; saturation incomplete. Type of test: binding.

Test [3] concerns the target Rhodamine labeled microtubules polymerized with GTPγS (UniProt P02550 1-451, rhodamine on part of the tubulin (3 µM rhodamine-labeled tubulin with 40 µM tubulin)); which chain carries it is not stated | rhodamine on part of the tubulin (3 µM rhodamine-labeled tubulin with 40 …). The test can be described thus: confocal fluorescence imaging of purified EB1-GFP on microtubules held on coverslips; rhodamine microtubules (GTPγS) on poly-lysine coverslips, washed free of GTPγS; 10 µM EB1-GFP protein added, 10 min, 37 °C, BRB80 pH 6.9; fixed with 1% glutaraldehyde; GFP intensity per pixel along microtubules. As to conditions: both partners purified.

The target of test [4] is Microtubules polymerized from tubulin with GTPγS (UniProt P02550 1-451). The test can be described thus: binding to microtubules held on coverslips, wash, SDS-PAGE of the bound protein; microtubules (40 µM tubulin, GTPγS) on poly-lysine coverslips, washed; 10 µM EB1-GFP protein added, 10 min at 37 °C (15 min in the legend), BRB80; unbound protein washed off; Coomassie bands normalized against tubulin; the paper calls it sedimentation. The note with it: both partners purified.

Changes are numbered by the printed parent chain. Names and notes keep the numbering of the source.

Take `Nc1nc2c(ncn2[C@@H]2O[C@H](COP(=O)(O)OP(=O)(O)OP(=O)(O)O)[C@@H](O)[C@H]2O)c(=O)[nH]1` [GTP]: the Kd in test [1] and in test [2] was ~10 to ~30 µM each time.

B1: EB1 R17A H18A-GFP (natural protein, human, UniProt Q15691 1-268, looked up)
chain: T2 sequence (Q15691 1-268) with R17A, H18A
notes: EB1, human, full-length cDNA with R17A and H18A; Made with the WT EB1-GFP pET22b eGFP plasmid as template; also called R17A H18A EB1-GFP; mutant EB1-GFP; source: E. coli BL21 (DE3), purified (Ni-NTA)
Turning to B1, the “fold increase of GFP intensity per pixel on microtubules against wild-type EB1-GFP” value in test [3] was roughly 2 fold. In addition, the “fold amount bound to microtubules against wild-type EB1” value in test [4] is roughly 1.5 fold.

The values are drawn from article PMC6023887, “GTP-binding facilitates EB1 recruitment onto microtubules by relieving its auto-inhibition” (Scientific Reports, 2018).
